Data set [1] in a line: in vivo. As to conditions: Wistar Han, rat, iv.
Data set [2] in a line: in vivo. The note with it: Wistar Han, rat, iv. This is another data set of the same source.
Data set [3] in a line: in vivo. As to conditions: Wistar Han, rat, iv. The source holds these as a separate data set.
The nature of data set [4]: in vitro. As to conditions: rat, plasma.
Data set [5] is described as follows: in vivo. As to conditions: Wistar Han, rat, urine, iv; at 0.6 to 2 µmol/kg.
The nature of data set [6]: in vivo. The note with it: Wistar Han, rat, at 0.6 to 2 µmol/kg.
The nature of data set [7]: in vivo. As to conditions: Wistar Han, rat, lung.
A short description of data set [8]: in vitro. The note with it: Wistar Han, rat, lung S9 fraction.
A short description of data set [9]: in vitro. As to conditions: human, lung S9 fraction.
Data set [10] is described as follows: in vitro. The note with it: rat, plasma. This is another data set of the same source.

Molecules are shown by their SMILES. A value given as a limit tells only on which side of the number the result lay.

Regarding `CC(=O)N[C@H]1CSCCC(=O)N2CN3CN(C2)C(=O)CCSC[C@H](NC(=O)[C@H](CC(N)=O)NC(=O)[C@H](CCC(=O)O)NC(=O)[C@H](CC(C)C)NC(=O)[C@H](Cc2c[nH]c4ccccc24)NC(=O)[C@H](Cc2c[nH]cn2)NC1=O)C(=O)N[C@@H](Cc1c[nH]c2ccccc12)C(=O)N[C@@H](CCCNC(=N)N)C(=O)NCC(=O)N[C@@H](Cc1ccccc1)C(=O)N[C@H](C(N)=O)CSCCC3=O`, the Vd – broadly, the apparent volume that relates the amount in the body to the concentration in plasma or blood – in the data set “in vivo [1]” was determined as 0.6 L/kg. Moreover, the clearance (in general, a measure of how efficiently the substance is removed, as volume per time) in “in vivo [2]” is 6.3 mL/min/kg. The half-life – broadly, the time needed for the level to fall by half in the phase considered – in the data set “in vivo [3]” turned out to be 1.1 h. In the data set “in vitro [4]”, the amount remaining (commonly what is left of the initial amount, in per cent) at 18 h was greater than 50%. In the data set “in vivo [5]”, this compound returned a dose excreted of 64%. In addition, the bioavailability (in general, dose-corrected exposure relative to a reference, in per cent) in “in vivo [6]” came out at 33.9%. Moreover, the MRT – broadly, the average time that molecules of a dose stay in the body – in the data set “in vivo [7]” is greater than 24 h.
Compound `CC(=O)N[C@H]1CSCCC(=O)N2CN3CN(C2)C(=O)CCSC[C@H](NC(=O)[C@H](CC(=O)O)NC(=O)[C@H](CCC(=O)O)NC(=O)[C@H](CC(C)(C)C)NC(=O)C(Cc2cn(C)c4ccccc24)NC(=O)[C@H](CCC(N)=O)NC1=O)C(=O)N[C@@H](Cc1cn(C)c2ccccc12)C(=O)N[C@@H](CCCNC(=N)N(C)C)C(=O)NCC(=O)N[C@@H](Cc1ccc(F)cc1)C(=O)N[C@H](C(N)=O)CSCCC3=O` (some centres undefined) gave a Vd in the data set “in vivo [1]” of 0.42 L/kg. This compound came in with a clearance in the data set “in vivo [2]” of 12 mL/min/kg. The half-life in the data set “in vivo [3]” is 0.433 h. In “in vitro [4]”, this compound displayed a share remaining at 18 h greater than 50%. The compound also showed a dose excreted in “in vivo [5]” of 1%. The bioavailability in “in vivo [6]” stood at 24.7%. In “in vivo [7]”, this compound showed an MRT of 1.3 h.
In turn, `CC(=O)N[C@H]1CSCCC(=O)N2CN3CN(C2)C(=O)CCSC[C@H](NC(=O)[C@H](CC(=O)O)NC(=O)[C@H](CCC(=O)O)NC(=O)[C@H](CC(C)C)NC(=O)[C@H](Cc2c[nH]c4ccccc24)NC(=O)[C@H](CCC(N)=O)NC1=O)C(=O)N[C@@H](Cc1c[nH]c2ccccc12)C(=O)N[C@@H](CCCNC(=N)N)C(=O)NCC(=O)N[C@@H](Cc1ccc(F)cc1)C(=O)N[C@H](C(N)=O)CSCCC3=O` returned an amount remaining at 18 h in the data set “in vitro [4]” greater than 50%. The compound also had a half-life at 1 h, 10 µM in “in vitro [8]” of 0.583 h.
The corresponding values for `CC(=O)N[C@H]1CSCCC(=O)N2CN3CN(C2)C(=O)CCSC[C@H](NC(=O)[C@H](CC(=O)O)NC(=O)[C@H](CCC(=O)O)NC(=O)[C@H](CC(C)C)NC(=O)[C@H](Cc2cccc4ccccc24)NC(=O)[C@H](CCC(N)=O)NC1=O)C(=O)N[C@@H](Cc1c[nH]c2ccccc12)C(=O)N[C@@H](CCCNC(=N)N(C)C)C(=O)NCC(=O)N[C@@H](Cc1ccc(F)cc1)C(=O)N[C@H](C(N)=O)CSCCC3=O` are greater than 50% and 1.38 h.
For `CC(=O)N[C@H]1CSCCC(=O)N2CN3CN(C2)C(=O)CCSC[C@@H]2NC(=O)[C@H](CC(=O)O)NC(=O)[C@H](CCC(=O)O)NC(=O)[C@H](CC(C)C)NC(=O)[C@H](CCCCCC[C@H](NC(=O)[C@H](Cc4c[nH]c5ccccc45)NC2=O)C(=O)NCC(=O)N[C@@H](Cc2ccc(F)cc2)C(=O)N[C@H](C(N)=O)CSCCC3=O)NC(=O)[C@H](CCC(N)=O)NC1=O`, in that order: greater than 50% and 0.567 h.
For the compound `CC(=O)N[C@H]1CSCCC(=O)N2CN3CN(C2)C(=O)CCSC[C@@H]2NC(=O)[C@H](CC(=O)O)NC(=O)[C@H](CCC(=O)O)NC(=O)[C@H](CC(C)C)NC(=O)[C@H](CC/C=C/CC[C@H](NC(=O)[C@H](Cc4c[nH]c5ccccc45)NC2=O)C(=O)NCC(=O)N[C@@H](Cc2ccc(F)cc2)C(=O)N[C@H](C(N)=O)CSCCC3=O)NC(=O)[C@H](CCC(N)=O)NC1=O`, the Vd in “in vivo [1]” was 0.21 L/kg. The same compound yielded a clearance in the data set “in vivo [2]” of 46 mL/min/kg. Also, in the data set “in vivo [3]”, the half-life is 0.05 h. The compound further registered a fraction remaining at 18 h in the data set “in vitro [4]” greater than 50%. In “in vivo [5]”, the dose excreted worked out at 0.1%. The same compound yielded a bioavailability in “in vivo [6]” of 5.9%. Further, in the data set “in vivo [7]”, the MRT was 0.5 h. In the data set “in vitro [8]”, this compound registered a half-life at 1 h, 10 µM of 0.8 h.
In the case of `CC(=O)N[C@H]1CSCCC(=O)N2CN3CN(C2)C(=O)CCSC[C@H](NC(=O)[C@H](CC(=O)O)NC(=O)[C@H](CCC(N)=O)NC(=O)[C@H](CC(C)(C)C)NC(=O)[C@H](Cc2cn(C)c4ccccc24)NC(=O)[C@H](CCC(N)=O)NC1=O)C(=O)N[C@@H](Cc1cn(C)c2ccccc12)C(=O)N[C@@H](CCCNC(=N)N(C)C)C(=O)NCC(=O)N[C@@H](Cc1ccc(F)c(Cl)c1)C(=O)N[C@H](C(N)=O)CSCCC3=O`, the Vd in “in vivo [1]” stood at 0.32 L/kg. The clearance in “in vivo [2]” was determined as 6.4 mL/min/kg. This compound showed a half-life in “in vivo [3]” of 0.583 h. The same compound registered a share remaining at 18 h in the data set “in vitro [4]” greater than 50%. The same compound gave a dose excreted in the data set “in vivo [5]” of 0.8%. In “in vivo [6]”, this compound displayed a bioavailability of 22.5%. In the data set “in vivo [7]”, this compound returned an MRT of 1.8 h. Further, the half-life at 1 h, 10 µM in “in vitro [8]” turned out to be 1.53 h.
On to `CC(=O)N[C@H]1CSCCC(=O)N2CN3CN(C2)C(=O)CCSC[C@H](NC(=O)[C@H](CC(=O)O)NC(=O)[C@H](CCC(=O)O)NC(=O)[C@H](CC(C)C)NC(=O)[C@H](Cc2c[nH]c4ccccc24)NC(=O)[C@H](CCC(N)=O)NC1=O)C(=O)N[C@@H](Cc1c[nH]c2ccccc12)C(=O)N[C@@H](CCCNC(=N)N)C(=O)NCC(=O)N[C@@H](Cc1ccc(F)cc1)C(=O)N[C@H](C(=O)N[C@@H](C)C(N)=O)CSCCC3=O`, for which the Vd in the data set “in vivo [1]” stood at 0.3 L/kg. Moreover, the clearance in “in vivo [2]” was determined as 42 mL/min/kg. The same compound came in with a half-life in “in vivo [3]” of 0.0833 h. The same compound yielded a share remaining at 18 h in “in vitro [4]” greater than 50%. Further, the bioavailability in “in vivo [6]” came out at 3.4%. In addition, the MRT in “in vivo [7]” is 1.2 h. Besides, the half-life at 1 h, 10 µM in “in vitro [8]” came to 2.4 h.
Consider `CC(=O)N[C@H]1CSCCC(=O)N2CN3CN(C2)C(=O)CCSC[C@H](NC(=O)[C@@H](CC(=O)O)NC(=O)[C@H](CCC(=O)O)NC(=O)[C@H](CC(C)C)NC(=O)[C@H](Cc2c[nH]c4ccccc24)NC(=O)[C@@H](CCC(N)=O)NC1=O)C(=O)N[C@@H](Cc1c[nH]c2ccccc12)C(=O)N[C@@H](CCCNC(=N)N)C(=O)NCC(=O)N[C@@H](Cc1ccc(F)cc1)C(=O)N[C@H](C(=O)O)CSCCC3=O`, for which the Vd in “in vivo [1]” turned out to be 0.13 L/kg. The compound also displayed a clearance in the data set “in vivo [2]” of 45 mL/min/kg. The half-life in “in vivo [3]” came to 0.0333 h. Also, the fraction remaining at 18 h in “in vitro [4]” was greater than 50%. The compound further yielded a bioavailability in the data set “in vivo [6]” of 2.3%. The compound also yielded an MRT in “in vivo [7]” of 1 h. The compound also registered a half-life at 1 h, 10 µM in the data set “in vitro [8]” of 1.12 h.
Regarding `CC(=O)N[C@H]1CSCCC(=O)N2CN3CN(C2)C(=O)CCSC[C@H](NC(=O)[C@H](CC(=O)O)NC(=O)[C@H](CCC(=O)O)NC(=O)[C@H](CC(C)C)NC(=O)[C@H](Cc2cccc4ccccc24)NC(=O)[C@H](CCC(N)=O)NC1=O)C(=O)N[C@@H](Cc1c[nH]c2ccccc12)C(=O)N[C@@H](CCCNC(=N)N(C)C)C(=O)NCC(=O)N[C@@H](Cc1ccc(F)cc1)C(=O)N[C@H](C(=O)N[C@@H](C)C(N)=O)CSCCC3=O`, the Vd in “in vivo [1]” was found to be 0.23 L/kg. Also, in “in vivo [2]”, the clearance was found to be 23 mL/min/kg. In “in vivo [3]”, this compound came in with a half-life of 0.117 h. For the same compound, in the data set “in vitro [4]”, the share remaining at 18 h was greater than 50%. The compound further came in with a dose excreted in the data set “in vivo [5]” of 0.3%. In the data set “in vivo [6]”, this compound showed a bioavailability of 8.6%. Further, the MRT in “in vivo [7]” came out at 2.2 h.
Turning to `CC(=O)N[C@H]1CSCCC(=O)N2CN3CN(C2)C(=O)CCSC[C@H](NC(=O)[C@H](CC(=O)O)NC(=O)[C@H](CCC(N)=O)NC(=O)[C@H](CC(C)(C)C)NC(=O)[C@H](Cc2cn(C)c4ccccc24)NC(=O)[C@H](C)N(C)C1=O)C(=O)N[C@@H](Cc1cn(C)c2ccccc12)C(=O)N[C@@H](CCCNC(=N)N(C)C)C(=O)NCC(=O)N[C@@H](Cc1ccc(F)cc1)C(=O)N[C@H](C(N)=O)CSCCC3=O`, in the data set “in vitro [4]”, the amount remaining at 18 h was greater than 50%. In addition, the half-life at 1 h, 10 µM in the data set “in vitro [8]” was 2.38 h.
Turning to `CC(=O)N[C@H]1CSCCC(=O)N2CN3CN(C2)C(=O)CCSC[C@H](NC(=O)[C@H](CC(=O)O)NC(=O)[C@H](CCC(N)=O)NC(=O)[C@H](CC(C)(C)C)NC(=O)[C@H](Cc2cccc4ccccc24)NC(=O)[C@H](C)N(C)C1=O)C(=O)N[C@@H](Cc1cn(C)c2ccccc12)C(=O)N[C@@H](CCCNC(=N)N(C)C)C(=O)NCC(=O)N[C@@H](Cc1ccc(F)cc1)C(=O)N[C@H](C(=O)N[C@@H](C)C(N)=O)CSCCC3=O`, the Vd in “in vivo [1]” was determined as 0.41 L/kg. Further, the clearance in the data set “in vivo [2]” is 6.4 mL/min/kg. Further, in the data set “in vivo [3]”, the half-life was determined as 0.75 h. The fraction remaining at 18 h in the data set “in vitro [4]” was greater than 50%. The same compound came in with a dose excreted in the data set “in vivo [5]” of 0.9%. The bioavailability in “in vivo [6]” was determined as 23%. The compound further registered an MRT in “in vivo [7]” of 2.4 h.
As for `CC(=O)N[C@H]1CSCCC(=O)N2CN3CN(C2)C(=O)CCSC[C@@H](NC(=O)[C@H](CC(N)=O)NC(=O)[C@H](CCC(=O)O)NC(=O)[C@H](CC(C)C)NC(=O)[C@H](Cc2c[nH]c4ccccc24)NC(=O)[C@H](Cc2c[nH]cn2)NC1=O)C(=O)N[C@@H](Cc1c[nH]c2ccccc12)C(=O)N[C@@H](CCCNC(=N)N)C(=O)NCC(=O)N[C@@H](Cc1ccccc1)C(=O)N[C@H](C(N)=O)CSCCC3=O`, the half-life in the data set “in vitro [9]” is less than 5 min. In “in vitro [10]”, this compound returned an amount remaining at 2 h of 90%. This compound also came in with a half-life at 1 h, 10 µM in the data set “in vitro [8]” of less than 0.0833 h.

The values are drawn from ChEMBL document CHEMBL5537198, “Discovery and Characterization of a Bicyclic Peptide (Bicycle) Binder to Thymic Stromal Lymphopoietin” (J Med Chem, 2024).
